Measured values published in patent US8586588B2, “Aryl pyridazinone derivatives and their use as H3 receptor ligands” (Cephalon, Inc., priority 2006, dated 2013).
Where a name gives a salt, the structure may show the parent alone. Read-outs that look alike come from different tables or passages of the source.

How the values were obtained:
[1] = target: T1, rat histamine H3 receptor (Rattus norvegicus, UniProt Q9QYN8); assay: Rat H3 radioligand binding ([3H]-N-alpha-methylhistamine, CHO-A3 cell membranes, SPA)
T1 construct: encoding the entire 445-amino-acid rat histamine H3 receptor; expressed in transfected cells
T1 sequence (Q9QYN8 whole entry): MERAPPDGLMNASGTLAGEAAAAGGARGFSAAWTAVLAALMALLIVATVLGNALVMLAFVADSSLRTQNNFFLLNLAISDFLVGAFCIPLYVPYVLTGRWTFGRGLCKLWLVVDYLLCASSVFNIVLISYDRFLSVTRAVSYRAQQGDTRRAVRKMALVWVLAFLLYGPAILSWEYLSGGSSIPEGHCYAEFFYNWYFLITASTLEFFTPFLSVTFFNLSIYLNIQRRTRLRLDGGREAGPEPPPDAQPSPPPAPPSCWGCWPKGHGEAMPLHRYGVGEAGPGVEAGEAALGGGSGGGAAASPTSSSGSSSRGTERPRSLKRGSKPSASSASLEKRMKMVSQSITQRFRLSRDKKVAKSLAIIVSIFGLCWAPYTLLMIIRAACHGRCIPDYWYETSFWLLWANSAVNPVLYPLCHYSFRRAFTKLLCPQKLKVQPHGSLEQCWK
Outline: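 Scintillation proximity displacement of about 1 nM [3H]-N-alpha-methylhistamine, test compound 0.01 nM-30 μM, 4 h, room temperature, in the dark. Receptor source: rat H3 stably transfected into CHO-A3 cells, 10 μg membrane protein, Tris-HCl pH 7.4/MgCl2/BSA buffer. Nonspecific binding defined by 10 μM clobenpropit.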

human H3 receptor = target: T2, human H3 receptor (Homo sapiens, UniProt Q9Y5N1); assay: Human H3 radioligand binding ([3H]-N-alpha-methylhistamine, CHO cell membranes, SPA); conditions: binding constant as letter class
T2 construct: expressed in transfected cells
T2 sequence (Q9Y5N1 whole entry): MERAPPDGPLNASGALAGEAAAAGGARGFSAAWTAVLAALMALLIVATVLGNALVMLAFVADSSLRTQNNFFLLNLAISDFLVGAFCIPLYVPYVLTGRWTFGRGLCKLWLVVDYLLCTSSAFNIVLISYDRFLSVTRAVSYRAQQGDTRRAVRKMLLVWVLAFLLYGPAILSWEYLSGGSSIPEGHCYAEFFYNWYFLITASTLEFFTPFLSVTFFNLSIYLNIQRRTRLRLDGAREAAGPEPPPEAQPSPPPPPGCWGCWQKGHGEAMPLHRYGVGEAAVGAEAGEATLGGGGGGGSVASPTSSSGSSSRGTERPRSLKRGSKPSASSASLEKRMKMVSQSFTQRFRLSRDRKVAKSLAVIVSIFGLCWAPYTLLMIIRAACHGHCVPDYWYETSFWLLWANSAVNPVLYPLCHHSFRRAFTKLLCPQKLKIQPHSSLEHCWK
Outline: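 Scintillation proximity format: bead-proximal [3H]-N-alpha-methylhistamine (approximately 1 nM final) bound to human H3 receptor in CHO membranes was counted after 4 h at room temperature, light-protected. Buffer was pH 7.4 Tris/MgCl2/BSA; test compounds spanned 0.01 nM-30 μM; 10 μM clobenpropit set non-specific binding.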

[2] = Table A, binding constant as letter class, read-out: Rat H3 Ki
[3] = Table B, binding constant as letter class, read-out: rat H3 Ki

With Cn1ncc(-c2ccc(OCCCN3CCCCC3)cc2)cc1=O (as salt: hydrochloride) [Example 92, 2-Methyl-5-[4-(3-piperidin-1-yl-propoxy)-phenyl]-2H-pyridazin-3-one] as the compound, how does the melting point read?
The melting point was 253 to 254 °C.

With Cn1ncc(-c2ccc(OCCCN3CCCCCC3)cc2)cc1=O (as salt: hydrochloride) [Example 93, 5-[4-(3-Azepan-1-yl-propoxy)-phenyl]-2-methyl-2H-pyridazin-3-one] as the compound, how does the melting point read?
The melting point was 247 to 248 °C.

With O=c1cc(-c2ccc(OCCCN3CCCCC3)cc2)cn[nH]1 (as salt: hydrochloride) [Example 97] as the compound, how does the melting point read?
Its melting point is 249 to 250 °C.

Which melting point does the source give for Cc1cccnc1-n1ncc(-c2ccc(OCCCN3CCC[C@H]3C)cc2)cc1=O (as salt: hydrochloride) [Example 99, 2-(3-Methyl-pyridin-2-yl)-5-{4-[3-((R)-2-methylpyrrolidin-1-yl)-propoxy]-phenyl}-2H-pyridazin-3-one] here?
The melting point was 98 to 100 °C.

Which melting point does the source give for Cc1nn(-c2ccccn2)c(=O)cc1-c1ccc(OCCCN2CCC[C@H]2C)cc1 (as salt: hydrochloride) [Example 100, 6-Methyl-5-{4-[3-((R)-2-methyl-pyrrolidin-1-yl)-propoxy]-phenyl}-2-pyridin-2-yl-2H-pyridazin-3-one] here?
The melting point was 155 to 157 °C.

Which melting point does the source give for Cc1cccnc1-n1nc(C)c(-c2ccc(OCCCN3CCC[C@H]3C)cc2)cc1=O (as salt: hydrochloride) [Example 101, 6-Methyl-2-(3-methyl-pyridin-2-yl)-5-{4-[3-((R)-2-methyl-pyrrolidin-1-yl)-propoxy]-phenyl}-2H-pyridazin-3-one] here?
The melting point was 106 °C (dec.).

With C[C@@H]1CCCN1CCCOc1ccc(C2=NNC(=O)CC2c2ccccn2)cc1 (stereo partly drawn) (as salt: hydrochloride) [Example 111, 6-{4-[3-((R)-2-Methyl-pyrrolidin-1-yl)-propoxy]-phenyl}-5-pyridin-2-yl-4,5-dihydro-2H-pyridazin-3-one] as the compound, how does the melting point read?
Its melting point is 133 °C (dec.).

Which melting point does the source give for C[C@@H]1CCCN1CCCOc1ccc(-c2n[nH]c(=O)cc2-c2ccccn2)cc1 (as salt: hydrochloride) [Example 112, 6-{4-[3-((R)-2-Methyl-pyrrolidin-1-yl)-propoxy]-phenyl}-5-pyridin-2-yl-2H-pyridazin-3-one] here?
Its melting point is 234 °C (dec.).

For O=c1cc(-c2ccc(OC3CCN(C4CCC4)CC3)nc2)cn[nH]1 (as salt: hydrochloride) [Example 117, 5-[6-(1-Cyclobutyl-piperidin-4-yloxy)-pyridin-3-yl]-2H-pyridazin-3-one], which melting point is on record?
Its melting point is 232 to 234 °C.

For C[C@@H]1CCCN1CCCOc1ccc(-c2ccc(=O)n(CCF)n2)cc1 (as salt: hydrochloride) [Example 118, 2-(2-Fluoro-ethyl)-6-{4-[3-((R)-2-methyl-pyrrolidin-1-yl)-propoxy]-phenyl}-2H-pyridazin-3-one], which melting point is on record?
The melting point was 135 to 136 °C.

Which melting point does the source give for COc1cn[nH]c(=O)c1-c1ccc(OCCCN2CCC[C@H]2C)cc1 (as salt: hydrochloride) [Example 237, 5-Methoxy-4-{4-[3-((R)-2-methyl-pyrrolidin-1-yl)-propoxy]-phenyl}-2H-pyridazin-3-one] here?
Its melting point is 135 to 140 °C.

For CC(C)n1nc(-c2ccc(OCCCN3CCC[C@H]3C)cc2)ccc1=O (as salt: tartrate) [Example 5, 2-Isopropyl-6-{4-[3-((R)-2-methyl-pyrrolidin-1-yl)-propoxy]-phenyl}-2H-pyridazin-3-one], which melting point is on record?
Its melting point is 60 to 64 °C.

Which melting point does the source give for CCn1nc(-c2ccc(OCCCN3CCC[C@H]3C)cc2)ccc1=O (as salt: tartrate) [Example 6, 2-Ethyl-6-{4-[3-((R)-2-methyl-pyrrolidin-1-yl)-propoxy]-phenyl}-2H-pyridazin-3-one] here?
Its melting point is 58 to 62 °C.

Which melting point does the source give for CC1CC(=O)NN=C1c1ccc(OCCCN2CCC[C@H]2C)cc1 (mixture of isomers) (as salt: HCl) [Example 194, 5-Methyl-6-{4-[3-((R)-2-methyl-pyrrolidin-1-yl)-propoxy]-phenyl}-4,5-dihydro-2H-pyridazin-3-one] here?
Its melting point is 169 to 171 °C.

Which melting point does the source give for CC1CC(=O)NN=C1c1ccc(OCCCN2CCCC2)cc1 (racemic) (as salt: HCl) [Example 198, 5-Methyl-6-[4-(3-pyrrolidin-1-yl-propoxy)-phenyl]-4,5-dihydro-2H-pyridazin-3-one] here?
The melting point was 161 to 163 °C.

With C[C@@H]1CCCN1CCCOc1ccc(C2=NNC(=O)C3CC23)cc1 (mixture of isomers) (as salt: HCl) [Example 243, 5-{4-[3-((R)-2-Methyl-pyrrolidin-1-yl)-propoxy]-phenyl}-3,4-diaza-bicyclo[4.1.0]hept-4-en-2-one] as the compound, how does the melting point read?
Its melting point is 136 to 139 °C.

Which results are given for CC1CC(=O)NN=C1c1ccc(OC2CCN(C3CCC3)CC2)cc1 (racemic) [Example 189, 6-[4-(1-Cyclobutyl-piperidin-4-yloxy)-phenyl]-5-methyl-4,5-dihydro-2H-pyridazin-3-one]?
melting point: 163 to 165 °C; Ki [1]: 0.0001 to 0.1 µM

What does the source list for Cn1nc(-c2ccc(OCC3CCN(C(=O)OC(C)(C)C)CC3)cc2)c2ccccc2c1=O [Example 62, 4-[4-(3-Methyl-4-oxo-3,4-dihydro-phthalazin-1-yl)-phenoxymethyl]-piperidine-1-carboxylic acid tert-butyl ester]?
melting point: 167 to 169 °C; Ki [1, 2]: > 1 µM; Ki (human H3 receptor; Table A): > 1 µM

Which melting point does the source give for Cn1nc(-c2ccc(OCC3CCN(C(=O)OC(C)(C)C)CC3)cc2)ccc1=O [Example 65, 4-[4-(1-Methyl-6-oxo-1,6-dihydro-pyridazin-3-yl)-phenoxymethyl]-piperidine-1-carboxylic acid tert-butyl ester] here?
Its melting point is 164 to 166 °C.

And the Ki [1, 2]?
The Ki was over 1 µM.

What about the Ki (human H3 receptor; Table A) of the same compound?
Its Ki is over 1 µM.

Which results are given for Cn1nc(-c2ccc(OC3CCN(C4CCCC4)CC3)cc2)ccc1=O [Example 83, 6-[4-(1-Cyclopentyl-piperidin-4-yloxy)-phenyl]-2-methyl-2H-pyridazin-3-one]?
melting point: 129 to 132 °C; Ki [1, 3]: 0.0001 to 0.1 µM; Ki (human H3 receptor; Table B): 0.0001 to 0.1 µM

What does the source list for C[C@@H]1CCCN1CCCOc1c(F)cc(-c2ccc(=O)n(C)n2)cc1F [Example 84, 6-{3,5-Difluoro-4-[3-((R)-2-methyl-pyrrolidin-1-yl)-propoxy]-phenyl}-2-methyl-2H-pyridazin-3-one]?
melting point: 175 to 178 °C; Ki [1, 3]: 0.0001 to 0.1 µM; Ki (human H3 receptor; Table B): 0.0001 to 0.1 µM

Which results are given for Cc1cccc(-n2ncc(-c3ccc(OCCCN4CCC[C@H]4C)cc3)cc2=O)n1 [Example 98, 2-(6-Methyl-pyridin-2-yl)-5-{4-[3-((R)-2-methyl-pyrrolidin-1-yl)-propoxy]-phenyl}-2H-pyridazin-3-one]?
melting point: 118 to 120 °C; Ki [1, 3]: 0.0001 to 0.1 µM; Ki (human H3 receptor; Table B): 0.0001 to 0.1 µM

With Cc1n[nH]c(=O)cc1-c1ccc(OC2CCNCC2)cc1.Cl [Example 102, 6-methyl-5-[4-(piperidin-4-yloxy)-phenyl]-2H-pyridazin-3-one] as the compound, how does the melting point read?
Its melting point is 225 to 227 °C.

What about the Ki [1, 3] of the same compound?
The Ki was over 1 µM.

What about the Ki (human H3 receptor; Table B) of the same compound?
Its Ki is over 1 µM.

With C[C@H](COc1ccc(-c2cn[nH]c(=O)c2)cc1)CN1CCC[C@H]1C [Example 225, 5-{4-[(S)-2-Methyl-3-((R)-2-methyl-pyrrolidin-1-yl)-propoxy]-phenyl}-2H-pyridazin-3-one] as the compound, how does the melting point read?
Its melting point is 154 to 156 °C.

What about the Ki [1] of the same compound?
Its Ki is 0.0001 to 0.1 µM.

For C[C@@H](COc1ccc(-c2cn[nH]c(=O)c2)cc1)CN1CCC[C@H]1C [Example 226, 5-{4-[(R)-2-Methyl-3-((R)-2-methyl-pyrrolidin-1-yl)-propoxy]-phenyl}-2H-pyridazin-3-one], which melting point is on record?
Its melting point is 130 to 133 °C.

And the Ki [1]?
The Ki was 0.0001 to 0.1 µM.
